Experimental data published in US20160287549A1, “NOVEL METHODS FOR TREATING NEURODEGENERATIVE DISEASES” (GENZYME CORPORATION, priority 2013, published 2016).

Assays:
hDHODH = hDHODH (Homo sapiens, UniProt Q02127); conditions: cited from earlier work
PfDHODH = PfDHODH (Plasmodium falciparum, UniProt Q08210); conditions: cited from earlier work
SOD1-G93A mice [1] = test: Grip strength performance test in SOD1-G93A mice; assay type: in vivo; conditions: for grip strength loss (percent decline from baseline): 20 mg/kg oral gavage, baseline at 82 days, control 46.14-67.38% loss
Procedure: (§1) In a second experiment, 20 mg/kg of teriflunomide was administered to 82 day old SOD1-G93A male and female mice (n=14/sex).
Testing of motor function using a grip strength device (Columbus Instruments, Columbus, Ohio) began at 60-70 days of age as previously described (Dodge, J. C. et al. (2008) 16:1056-1064). Each weekly session consisted of 4 tests per animal. Data shown represent percent decline in strength from baseline. Baseline measurements were made at 82 days of age. Percent reduction is grip strength is shown for vehicle treated mice scored as ES and age matched sibling mice treated with teriflunomide.

SOD1-G93A mice [2] = test: Survival of symptomatic SOD1-G93A ALS mice; assay type: in vivo
Procedure: SOD1-G93A transgenic mice (also known as G93A-SOD1 mice) are currently the best available model to test experimental therapeutics for the treatment of ALS. […] For example, the transgenic mice present with progressive muscular atrophy and weakness. Neuroinflammation, demyelination, and motor neuron death are observed in the mice, and ultimately, the mice become paralyzed and have a shortened lifespan.
To evaluate the effectiveness of DHODH inhibitors in treating ALS, 10 mg/kg of teriflunomide was administered by oral gavage to 82 day old SOD1-G93A male mice.
as §1
Male SOD1-G93A mice (n=14) were administered W19 (subcutaneous injection at 10 mg/kg for 5 consecutive days and then every 10 mg/kg every 2 weeks thereafter) was administered starting at 82 days of age. After 7 days, peripheral blood was collected and lymphocyte depletion was evaluated using flow cytometry.
Transgenic male (n=84) and female littermate (n=28) mice that express the mutant SOD1^G93A transgene at high-levels were divided to achieve cohort, sibling and sex matching amongst groups for these studies (Scott, S., et al. “Design, Power, and Interpretation of Studies in the Standard Murine Model of ALS.” Amyotrophic Lateral Sclerosis 9.1 (2008): 4-15. SCOPUS. Web. 18 Nov. 2013). Mutant SOD1 gene copy number and SOD1 protein expression were confirmed by PCR and western blot analysis. Animals were housed under light:dark (12:12 h) cycle and provided with food and water ad libitum. All procedures were performed using protocols approved by Genzyme Corporation's Institutional Animal Care and Use Committees.
Mice were scored into the following phases: presymptomatic (Pre-SYMP)=no visible motor abnormalities (i.e., normal hind limb splay); Symptomatic (SYMP)=abnormal hindlimb splay; End stage (ES)=onset of limb paralysis (typically hindlimb); and Moribund (MB)=unable to right themselves within 30 sec after being placed on their back.

[3] = cited from earlier work
L1210 murine leukemia = conditions: cited from earlier work
[4] = system: murine colon 38 tumor model; conditions: tissue-specific modulation of uridine nucleotide pools; cited from earlier work

Chain of PfDHODH (Q08210 24-569): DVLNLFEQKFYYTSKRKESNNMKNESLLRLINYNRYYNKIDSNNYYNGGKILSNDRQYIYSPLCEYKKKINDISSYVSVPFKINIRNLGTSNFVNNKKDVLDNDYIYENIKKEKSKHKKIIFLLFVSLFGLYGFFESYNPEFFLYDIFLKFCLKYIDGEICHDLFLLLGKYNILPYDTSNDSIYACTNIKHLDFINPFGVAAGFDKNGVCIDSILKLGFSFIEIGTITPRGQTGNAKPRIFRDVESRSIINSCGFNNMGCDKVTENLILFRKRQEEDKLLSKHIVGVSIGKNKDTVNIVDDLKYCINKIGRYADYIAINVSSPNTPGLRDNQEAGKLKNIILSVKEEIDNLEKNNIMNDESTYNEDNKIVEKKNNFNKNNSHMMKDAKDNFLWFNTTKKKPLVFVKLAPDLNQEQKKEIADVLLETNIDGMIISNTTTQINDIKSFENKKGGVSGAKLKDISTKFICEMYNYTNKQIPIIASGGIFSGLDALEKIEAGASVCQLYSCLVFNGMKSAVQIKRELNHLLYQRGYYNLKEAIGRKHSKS
Chain of hDHODH (Q02127 whole entry): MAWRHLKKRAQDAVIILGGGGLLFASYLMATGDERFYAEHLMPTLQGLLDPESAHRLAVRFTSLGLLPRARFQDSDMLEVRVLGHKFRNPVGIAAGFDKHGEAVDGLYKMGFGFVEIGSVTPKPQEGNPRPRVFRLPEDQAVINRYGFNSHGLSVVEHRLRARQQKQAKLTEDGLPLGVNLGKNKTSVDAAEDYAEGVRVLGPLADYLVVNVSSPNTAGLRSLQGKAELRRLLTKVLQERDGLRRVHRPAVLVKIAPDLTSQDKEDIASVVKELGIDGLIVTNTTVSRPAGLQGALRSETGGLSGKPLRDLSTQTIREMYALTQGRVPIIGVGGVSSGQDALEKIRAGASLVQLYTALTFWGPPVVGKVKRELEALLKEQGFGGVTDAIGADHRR

CCOC(=O)C(=CNc1cccc(C(=O)OCC)c1)C(=O)OCC [Compound 58]
hDHODH(50 μM) (hDHODH): 5 ± 2 | PfDHODH(50 μM) (PfDHODH): 0 ± 4

C/C(O)=C(\C#N)C(=O)Nc1ccc(C(F)(F)F)cc1 [teriflunomide, (Z)-2-cyano-3-hydroxy-but-2-enoic acid-(4′-trifluoromethylphenyl)-amide]
grip strength loss (percent decline from baseline) (SOD1-G93A mice [1]; female SOD1-G93A mice): −24.06% | grip strength loss (percent decline from baseline) (SOD1-G93A mice [1]; male SOD1-G93A mice): −20.14% | effect on muscle strength loss (SOD1-G93A mice [1]; 20 mg/kg, male and female SOD1-G93A mice): significantly slowed muscle strength loss | increase in survival as compared to control (SOD1-G93A mice [2]; 10 mg/kg oral gavage, 82 day old male SOD1-G93A mice): 7 days | median survival (SOD1-G93A mice [2]; 10 mg/kg oral gavage, 82 day old male SOD1-G93A mice, control 127 days, p<0.005): 134 days | median survival (SOD1-G93A mice [2]; 20 mg/kg oral gavage, 82 day old male and female SOD1-G93A mice, control 130 days, p<0.04): 146.5 days | increase in median survival as compared to control (SOD1-G93A mice [2]; 20 mg/kg, 82 day old male and female SOD1-G93A mice): 16.5 days | solubility in acetone ([3]; acetone): sparingly soluble | solubility in ethanol ([3]; ethanol): slightly soluble | solubility in isopropanol ([3]; isopropanol): very slightly soluble | solubility in polyethylene glycol ([3]; polyethylene glycol): slightly soluble | solubility in water ([3]; water): practically insoluble

CCOC(=O)C(=CNc1ccc(C(=O)OCC)cc1)C(=O)OCC [Compound 59]
hDHODH(50 μM) (hDHODH): 4 ± 2 | PfDHODH(50 μM) (PfDHODH): 15 ± 4

CCOC(=O)C(C#N)=CNc1ccc(C(=O)OCC)cc1 [Compound 60]
hDHODH(50 μM) (hDHODH): 2 ± 2 | PfDHODH(50 μM) (PfDHODH): 2 ± 4

Cc1c(-c2ccc(-c3ccccc3F)cc2)nc2ccc(F)cc2c1C(=O)O [Brequinar]
anticancer activity (L1210 murine leukemia): exhibits anticancer activity | effect on 5-fluorouracil antitumor activity [4]: potentiates 5-fluorouracil antitumor activity
